In PMC8780978, “Antiplatelet and Antithrombotic Effects of Isaridin E Isolated from the Marine-Derived Fungus via Downregulating the PI3K/Akt Signaling Pathway” (Marine Drugs, 2021):
Where a SMILES comes first, the peptide text is derived from it. [ ]: non-standard residue; d: D form. ξ: configuration not given here. ξLac(3-iPr) = CC(C)CC(O)C(=O)O; NMeV = CN[C@H](C(=O)O)C(C)C; βAla = NCCC(=O)O

How the values were obtained:
[1] = test system: washed mouse platelets; test: Collagen-induced platelet aggregation; assay type: cell-based; conditions: collagen 1 μg/mL, p > 0.05
Method: (§1) Washed platelets were prepared as previously described by Zhongren Ding et al.. Whole blood was collected from the abdominal aorta using a syringe containing 3.8% sodium citrate (9:1, V/V) as an anticoagulant. Citrated blood (2 mL) was centrifuged at room temperature at 300× g for 2 min to obtain platelet-rich plasma (PRP). Platelets were obtained by the further centrifugation of PRP at 700× g for 2 min, and resuspended in Tyrode’s buffer (138 mM of NaCl, 2.7 mM of KCl, 1 mM of MgCl2, 3 mM of NaH2PO4, 5 mM of glucose, 10 mM of HEPES, pH 7.4) with 0.02 U/mL apyrase (A6410, Sigma-Aldrich, St. Louis, MO, USA) to a density of 3 × 10^8 of platelets/mL for use.
The platelet aggregation and release assay were performed as previously reported. […] The platelet aggregation was assessed using a lumi-aggregometer (700-2, Chrono-Log, Havertown, PA, USA) with a stirring speed of 1200 rpm at 37 °C. The release of ATP was simultaneously monitored using Luciferin/luciferase reagent (395, Chrono-Log, Havertown, PA, USA). Aggregation traces and ATP release traces were monitored continuously for at least 10 min.

[2] = test system: washed mouse platelets; test: ADP-induced platelet activation, CD62p surface expression by flow cytometry; assay type: cell-based; conditions: 30 min, then 50 μM ADP 5 min, vehicle 35.6 ± 1.7%
Method: as §1
Washed mouse platelets were pretreated with vehicle or different concentrations of isaridin E for 30 min at 37 °C, followed by stimulation with 50 μM ADP for 5 min. Platelets were then stained with FITC-conjugated anti-CD41 antibody (133904, Biolegend, San Diego, CA, USA) and PE-conjugated anti-CD62p antibody (148306, Biolegend, San Diego, CA, USA) for 20 min at 25 °C in the dark. Then, platelets were fixed in 1% paraformaldehyde solution and analyzed with a CytoFLEX flow cytometer (Beckman Coulter, Brea, CA, USA).

[3] = test system: Akt; test: ADP-induced phosphorylation of Akt, Western blot; assay type: cell-based, human; conditions: 50 μM, Meg-01 cells
Method: Western blotting was performed as described in our previous study. Meg-01 cells were lysed with protein lysis buffer (P0013, Beyotime Biotechnology, Haimen, China) containing a protease inhibitor cocktail (539131, Millipore, Billerica, MA, USA) and phosphatase inhibitor cocktail (K1012, APExBIO, Houston, TX, USA). The samples (20 μg) were then separated by 8% SDS-PAGE gel and transferred onto PVDF membranes. The PDVF membranes were incubated with primary antibodies at 4 °C for 12 h. After incubating with the appropriate HRP-conjugated secondary antibodies (7076, 7074, Cell Signaling Technology, Danvers, MA, USA), blots were detected with chemiluminescent HRP substrate (P90719, Millipore, Billerica, MA, USA) using the ChemiDoc XRS+ system (BIO-RAD, Hercules, CA, USA). Primary antibodies against the following antigens were listed: PI3K (4257, Cell Signaling Technology, Danvers, MA, USA), Phospho-PI3K (ab226842, Abcam, Cambridge, UK), Akt (4691, Cell Signaling Technology, Danvers, MA, USA), Phospho-Akt (4056, Cell Signaling Technology, Danvers, MA, USA), and β-actin (66009-1, Proteintech, Rosemont, IL, USA).

[4] = test system: washed mouse platelets; test: LDH (lactate dehydrogenase) release cytotoxicity assay; assay type: cell-based; conditions: for LDH Release (%): 37 °C, 30 min, n = 6
Excerpt: We first examined whether isaridin E has cytotoxic effects on washed mouse circulating platelets using the LDH (lactate dehydrogenase) cytotoxicity assay kit. Destruction of the cell membrane caused by apoptosis or necrosis leads to the release of enzymes in the cytoplasm into the culture medium, including LDH, with stable enzyme activity. Therefore, the quantitative analysis of the percentage of LDH leakage from the platelets is commonly used to evaluate the cytotoxic effects of tested compounds, and LDH > 10% was considered cytotoxic. […] Next, we tested whether treatment with isaridin E for 3 h (a single intragastric administration at 100 mg/kg) affects hematological and coagulation parameters in vivo.
as §1
The possible cytotoxic effect of isaridin E on mouse platelets was assessed with the LDH Cytotoxicity Assay Kit (C0016, Beyotime Biotechnology, Haimen, China). Washed mouse platelets were pretreated with vehicle or different concentrations of isaridin E ([…], 12.5, 25, 50, 100, 200, or 400 μM) at 37 °C for 30 min, and then collected for detection following the manufacturer’s instructions. The cytotoxic effects were determined using the percentage of LDH leakage released from the platelets (% LDH release).

[5] = test system: washed mouse platelets; test: ADP-induced platelet aggregation (light transmission aggregometry); assay type: cell-based; conditions: ADP 5 μM; for ADP-induced maximum platelet aggregation, % of vehicle control: 30 min pretreatment
Method: as §1
The platelet aggregation and release assay were performed as previously reported. Washed mouse platelets were treated with isaridin E (6.25, 12.5, 25, 50, 100, or 200 μM) or vehicle or clopidogrel (20 μM) at 37 °C for 30 min, followed by stimulation with ADP (01905, Sigma-Aldrich, St. Louis, MO, USA, 5 μM), collagen (C7661, Sigma-Aldrich, St. Louis, MO, USA, 1 μg/mL) or thrombin (T6884, Sigma-Aldrich, St. Louis, MO, USA, 0.02 U/mL). The platelet aggregation was assessed using a lumi-aggregometer (700-2, Chrono-Log, Havertown, PA, USA) with a stirring speed of 1200 rpm at 37 °C. The release of ATP was simultaneously monitored using Luciferin/luciferase reagent (395, Chrono-Log, Havertown, PA, USA). Aggregation traces and ATP release traces were monitored continuously for at least 10 min.

[6] = Coagulation parameters (APTT, PT, TT, FIB) after single intragastric dose; assay type: in vivo, mice; conditions: 3 h
Method: Mice were intragastrically administrated with a single dose of isaridin E (100 mg/kg) or vehicle at 3 h before anesthesia. Whole blood was drawn from the abdominal aorta and collected in K2EDTA anticoagulant tubes to evaluate the hematologic parameters with an automatic hematology analyzer (BC-2800 vet, Mindray, Shenzhen, China). The citrated blood was centrifuged at 1500× g (25 °C) for 15 min to obtain the platelet-poor plasma (PPP). PPP was then used to measure the coagulation parameters, including ATPP, PT, TT, and FIB, with an automated coagulation analyzer (RAC-030, Rayto, Shenzhen, China).

[7] = 100 mg/kg single oral gavage, n = 5 mice

SMILES: CC(C)CC1OC(=O)CCNC(=O)[C@H](C(C)C)N(C)C(=O)[C@H](C(C)C)N(C)C(=O)[C@H](Cc2ccccc2)NC(=O)[C@@H]2CCCN2C1=O (stereo partly drawn) [Isaridin E, cyclo-[(OH) (S)-HMPA^1-L-Pro^2-L-Phe^3-N-Me-L-Val^4-N-Me-L-Val^5-β-Ala^6(CO)]] (cyclo(F[NMeV][NMeV][βAla][ξLac(3-iPr)]P))
- maximum platelet aggregation in response to collagen [1]: no significant differences
- percentage of CD62p expression on the platelet surface ([2]; 25 μM): 29.6 ± 1.0%
- percentage of CD62p expression on the platelet surface ([2]; 50 μM): 16.0 ± 1.4%
- percentage of CD62p expression on the platelet surface ([2]; 100 μM): 8.4 ± 1.0%
- ADP-induced phosphorylation of Akt ([3]; 30 min, ADP 5 μM 5 min): significantly suppressed
- total protein expression of Akt [3]: without altering
- cytotoxicity on washed platelets ([4]; 6.25-400 μM, LDH > 10% considered cytotoxic): no obvious cytotoxicity
- LDH Release (%) ([4]; isaridin E 6.25 μM): 0.86 ± 0.03%
- LDH Release (%) ([4]; isaridin E 12.5 μM): 0.89 ± 0.04%
- LDH Release (%) ([4]; isaridin E 25 μM): 0.88 ± 0.03%
- LDH Release (%) ([4]; isaridin E 50 μM): 0.86 ± 0.03%
- LDH Release (%) ([4]; isaridin E 100 μM): 0.88 ± 0.04%
- LDH Release (%) ([4]; isaridin E 200 μM): 0.84 ± 0.02%
- LDH Release (%) ([4]; isaridin E 400 μM): 0.85 ± 0.02%
- ADP-induced maximum platelet aggregation, % of vehicle control ([5]; 12.5 μM): 75.6 ± 2.6%
- ADP-induced maximum platelet aggregation, % of vehicle control ([5]; 25 μM): 55.7 ± 4.8%
- ADP-induced maximum platelet aggregation, % of vehicle control ([5]; 50 μM): 26.6 ± 3.5%
- reduction of ADP-induced platelet aggregation versus vehicle control ([5]; 50 μM, extent similar to clopidogrel (20 μM)): 73.4 ± 3.5%
- ADP-induced maximum platelet aggregation, % of vehicle control ([5]; 100 μM): 15.6 ± 2.9%
- ADP-induced maximum platelet aggregation, % of vehicle control ([5]; 200 μM): 8.1 ± 0.8%
- IC50 ([5]; Mus musculus, Platelet, read-out: IC50 inhibiting ADP-induced platelet aggregation): 26.1 ± 2.9 µM
- effect on general coagulation (APTT, TT, PT, FIB) ([6]; 100 mg/kg single intragastric administration): no obvious effects
- ATPP [6, 7]: 32.4 ± 1.0 s
- FIB (fibrinogen) [6, 7]: 3.1 ± 0.1 g/L
- PT (prothrombin time) [6, 7]: 12.1 ± 0.4 s
- TT (thrombin time) [6, 7]: 14.0 ± 0.8 s
